Assay results reported in the supplement of paper PMC10627819.

Assays:
Assay in all cases: fitness (endpoint OD595 vs no drug) (fraction); higher = more growth
[1] = system: S. aureus DSM 20231
Summary of the method: (§1)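 Bacterial growth was followed in 384-well plates seeded at OD595 0.01, with 30 µl per well, or 55 µl for S. pneumoniae, in TSB, LB Lennox or CY at 37 °C. OD595 was read every 30 min for 14 h, and each reading had the first reading subtracted as background. Fitness is the background-corrected optical density at entry into stationary phase divided by the robust mean of the no-drug control wells. This ratio is capped at 1.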

[2] = system: S. aureus Newman
Summary of the method: as §1

[3] = system: B. subtilis 168
Summary of the method: as §1

N[C@@H]1CONC1=O [Cycloserine D] + COc1c(N2C[C@@H]3CCCN[C@@H]3C2)c(F)cc2c(=O)c(C(=O)O)cn(C3CC3)c12 [Moxifloxacin]
fitness
Conditions | first compound 0.125 µg/mL | first compound 0.25 µg/mL | first compound 0.375 µg/mL | first compound 0.5 µg/mL | first compound 0.75 µg/mL | first compound 1.5 µg/mL
[1], partner 0.0075 µg/mL | – | – | 0.827 | – | 0.85 | 0.844
[1], partner 0.015 µg/mL | – | – | 0.713 | – | 0.712 | 0.687
[1], partner 0.03 µg/mL | – | – | 0.575 | – | 0.586 | 0.564
[2], partner 0.0075 µg/mL | – | – | 0.761 | – | 0.753 | 0.705
[2], partner 0.015 µg/mL | – | – | 0.599 | – | 0.552 | 0.586
[2], partner 0.03 µg/mL | – | – | 0.119 | – | 0.0631 | 0.06
[3], partner 0.0312 µg/mL | 0.0481 | 0.0489 | – | 0.0432 | – | –
[3], partner 0.0625 µg/mL | 0.033 | 0.034 | – | 0.028 | – | –
[3], partner 0.125 µg/mL | 0.0229 | 0.0218 | – | 0.03 | – | –
[3], partner 2 µg/mL | 0.0539 | 0.0355 | – | 0.0265 | – | –
[3], partner 4 µg/mL | 0.0542 | 0.0318 | – | 0.0298 | – | –
[3], partner 8 µg/mL | 0.04 | 0.0429 | – | 0.0319 | – | –

fitness, [1], one replicate
Conditions | first compound 0.375 µg/mL | first compound 0.75 µg/mL | first compound 1.5 µg/mL
partner 0.06 µg/mL | 0.658 | 0.656 | 0.654
partner 0.12 µg/mL | 0.483 | 0.518 | 0.483

O=C(N[C@H](CO)[C@H](O)c1ccc([N+](=O)[O-])cc1)C(Cl)Cl [Chloramphenicol] + CO/N=C(\C(=O)N[C@@H]1C(=O)N2C(C(=O)[O-])=C(C[N+]3(C)CCCC3)CS[C@H]12)c1csc(N)n1 [Cefepime]
fitness
Conditions | partner 0.125 µg/mL | partner 0.25 µg/mL | partner 0.5 µg/mL
[1], first compound 0.75 µg/mL | 0.749 | 0.83 | 0.811
[1], first compound 1.5 µg/mL | 0.661 | 0.699 | 0.645
[1], first compound 3 µg/mL | 0.19 | 0.22 | 0.233
[2], first compound 0.75 µg/mL | 0.756 | 0.685 | 0.611
[2], first compound 3 µg/mL | – | 0.275 | 0.234

N[C@@H]1CONC1=O [Cycloserine D] + C[n+]1ccc(-c2cc[n+](C)cc2)cc1 [Paraquat]
fitness
Conditions | first compound 0.125 µg/mL | first compound 0.25 µg/mL | first compound 0.375 µg/mL | first compound 0.5 µg/mL | first compound 0.75 µg/mL | first compound 1.5 µg/mL
[1], partner 1.25 µg/mL | – | – | 0.976 | – | 0.978 | 0.964
[1], partner 2.5 µg/mL | – | – | ≥ 1 | – | 0.977 | ≥ 1
[1], partner 5 µg/mL | – | – | 0.977 | – | 0.983 | 0.965
[2], partner 1.25 µg/mL | – | – | 0.962 | – | 0.871 | 0.899
[2], partner 2.5 µg/mL | – | – | 0.979 | – | 0.966 | 0.984
[2], partner 5 µg/mL | – | – | 0.938 | – | 0.969 | 0.93
[3], partner 1.25 µg/mL | 0.939 | 0.919 | – | 0.958 | – | –
[3], partner 2.5 µg/mL | 0.911 | 0.905 | – | 0.899 | – | –
[3], partner 5 µg/mL | 0.842 | 0.787 | – | 0.746 | – | –

CCC[C@@H]1C[C@@H](C(=O)N[C@@H]([C@H]2O[C@H](SC)[C@H](O)[C@@H](O)[C@H]2O)[C@H](C)Cl)N(C)C1 [Clindamycin] + N[C@@H]1CONC1=O [Cycloserine D]
fitness
Conditions | partner 0.125 µg/mL | partner 0.25 µg/mL | partner 0.375 µg/mL | partner 0.5 µg/mL | partner 0.75 µg/mL | partner 1.5 µg/mL
[1], first compound 0.0625 µg/mL | – | – | 0.0659 | – | 0.0748 | 0.0881
[1], first compound 0.125 µg/mL | – | – | 0.0216 | – | 0.0398 | 0.0593
[2], first compound 0.0312 µg/mL | – | – | 0.732 | – | 0.735 | 0.746
[2], first compound 0.125 µg/mL | – | – | 0.0953 | – | 0.115 | 0.103
[3], first compound 0.0625 µg/mL | 0.592 | 0.512 | – | 0.549 | – | –
[3], first compound 0.125 µg/mL | 0.413 | 0.365 | – | 0.363 | – | –
[3], first compound 0.25 µg/mL | 0.396 | 0.348 | – | 0.329 | – | –

fitness, [3], one replicate
Conditions | first compound 0.0039 µg/mL | first compound 0.0078 µg/mL | first compound 0.0156 µg/mL
partner 0.125 µg/mL | 0.985 | 0.927 | 0.879
partner 0.25 µg/mL | 0.974 | 0.859 | 0.796
partner 0.5 µg/mL | ≥ 1 | 0.901 | 0.845

N[C@@H]1CONC1=O [Cycloserine D] + COc1ccc(C[C@H](N)C(=O)N[C@H]2[C@@H](O)[C@H](n3cnc4c(N(C)C)ncnc43)O[C@@H]2CO)cc1 [Puromycin]
fitness
Conditions | first compound 0.125 µg/mL | first compound 0.25 µg/mL | first compound 0.375 µg/mL | first compound 0.5 µg/mL | first compound 0.75 µg/mL | first compound 1.5 µg/mL
[1], partner 0.39 µg/mL | – | – | ≥ 1 | – | ≥ 1 | ≥ 1
[1], partner 0.78 µg/mL | – | – | ≥ 1 | – | ≥ 1 | ≥ 1
[1], partner 1.56 µg/mL | – | – | 1 | – | ≥ 1 | ≥ 1
[2], partner 0.39 µg/mL | – | – | ≥ 1 | – | ≥ 1 | ≥ 1
[2], partner 0.78 µg/mL | – | – | 0.999 | – | 0.977 | 0.989
[2], partner 1.56 µg/mL | – | – | ≥ 1 | – | 0.998 | ≥ 1
[3], partner 0.39 µg/mL | 0.958 | 0.889 | – | 0.955 | – | –
[3], partner 0.78 µg/mL | 0.931 | 0.894 | – | 0.968 | – | –
[3], partner 1.56 µg/mL | 0.959 | 0.929 | – | 0.915 | – | –

fitness, [1], one replicate
Conditions | first compound 0.375 µg/mL | first compound 0.75 µg/mL | first compound 1.5 µg/mL
partner 3.12 µg/mL | ≥ 1 | ≥ 1 | 0.977
partner 6.24 µg/mL | 0.748 | 0.718 | 0.687
